These results are taken from patent publication US8455475B2 (Gruenenthal GmbH, priority 2009, dated 2013).

The structures appear in SMILES notation.

For one assay, the target named is T1, rat B1R (bradykinin receptor 1) (Rattus norvegicus, UniProt P97583).
T1 construct: expressed in transfected cells; host or cells: CHO K1 cells
T1 sequence (P97583 1-337): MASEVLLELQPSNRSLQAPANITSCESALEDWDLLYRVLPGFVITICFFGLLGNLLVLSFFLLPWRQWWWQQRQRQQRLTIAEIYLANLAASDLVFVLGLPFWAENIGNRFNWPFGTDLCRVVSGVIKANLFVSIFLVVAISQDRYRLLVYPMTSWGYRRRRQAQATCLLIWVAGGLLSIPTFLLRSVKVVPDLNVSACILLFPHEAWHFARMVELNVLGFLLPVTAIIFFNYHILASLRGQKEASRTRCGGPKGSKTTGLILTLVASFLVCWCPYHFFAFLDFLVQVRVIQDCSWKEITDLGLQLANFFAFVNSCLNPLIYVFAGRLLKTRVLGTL
The assay is described as follows: FLIPR Ca2+ assay (Fluo-4) on CHO K1 cells stably transfected with the B1R gene of the rat (rB1R cells): % inhibition at 10 μM / IC50, agonist Des-Arg9-bradykinin. Format: cell-based. The following applies: CHO-K1, rat B1R. Summed up: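 Loading with Fluo-4 occurs for 60 min at 37 °C, or alternatively in buffer A, before FLIPR measurement. Compounds are applied, incubated 10–20 min, and then the EC80 agonist is added. Antagonism appears as reduced peak Ca2+ signal relative to maximal inhibition.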
`CN(C(=O)c1ccccc1Cl)C1CCc2ccc(C(=O)N3CCC4(CCN(Cc5ccc6nccnc6c5)CC4)C3)cc21` (centres unmarked) [IND_CC-506, 2-Chloro-N-methyl-N-[6-[8-(quinoxalin-6-yl-methyl)-2,8-diazaspiro[4.5]decane-2-carbonyl]-2,3-dihydro-1H-inden-1-yl]-benzamide]: the inhibition at 10 µM came to 61%. Still for that read-out and setting: to `O=C(NC1CCc2ccc(C(=O)N3CCC4(CCN(Cc5c[nH]cn5)CC4)CC3)cc21)c1ccccc1Cl` (centres unmarked) [IND_CC-508, 2-Chloro-N-[6-[9-(1H-imidazol-4-yl-methyl)-3,9-diazaspiro[5.5]undecane-3-carbonyl]-2,3-dihydro-1H-inden-1-yl]-benzamide] belongs 100%. As to `O=C(NC1CCc2ccc(C(=O)N3CCC4(CCN(Cc5ccccn5)CC4)CC3)cc21)c1ccccc1Cl` (centres unmarked) [IND_CC-509, 2-Chloro-N-[6-[9-(pyridin-2-yl-methyl)-3,9-diazaspiro[5.5]undecane-3-carbonyl]-2,3-dihydro-1H-inden-1-yl]-benzamide], the inhibition at 10 µM turned out to be 101%. On to `O=C(NC1CCc2ccc(C(=O)N3CCC4(CCN(Cc5cccnc5)CC4)CC3)cc21)c1ccccc1Cl` (centres unmarked) [IND_CC-511, 2-Chloro-N-[6-[9-(pyridin-3-yl-methyl)-3,9-diazaspiro[5.5]undecane-3-carbonyl]-2,3-dihydro-1H-inden-1-yl]-benzamide], for which the inhibition at 10 µM was 94%. Consider `Cn1cccc1CN1CCC2(CC1)CCN(C(=O)c1ccc3c(c1)C(NC(=O)c1ccccc1Cl)CC3)CC2` (centres unmarked) [IND_CC-512, 2-Chloro-N-[6-[9-[(1-methyl-1H-pyrrol-2-yl)-methyl]-3,9-diazaspiro[5.5]undecane-3-carbonyl]-2,3-dihydro-1H-inden-1-yl]-benzamide], for which the inhibition at 10 µM was 92%. For `O=C(NC1CCc2ccc(C(=O)N3CCC4(CCN(Cc5c(F)cccc5F)CC4)CC3)cc21)c1ccccc1Cl` (centres unmarked) [IND_CC-513, 2-Chloro-N-[6-[9-[(2,6-difluoro-phenyl)-methyl]-3,9-diazaspiro[5.5]undecane-3-carbonyl]-2,3-dihydro-1H-inden-1-yl]-benzamide], the inhibition at 10 µM came out at 98%. On to `O=C(NC1CCc2ccc(C(=O)N3CCC4(CCN(Cc5ccc(F)c(F)c5)CC4)CC3)cc21)c1ccccc1Cl` (centres unmarked) [IND_CC-514, 2-Chloro-N-[6-[9-[(3,4-difluoro-phenyl)-methyl]-3,9-diazaspiro[5.5]undecane-3-carbonyl]-2,3-dihydro-1H-inden-1-yl]-benzamide], for which the inhibition at 10 µM was 102%. The same measure, in the same setting: then `O=C(NC1CCc2ccc(C(=O)N3CCC4(CCN(Cc5cc(F)ccc5F)CC4)CC3)cc21)c1ccccc1Cl` (centres unmarked) [IND_CC-515, 2-Chloro-N-[6-[9-[(2,5-difluoro-phenyl)-methyl]-3,9-diazaspiro[5.5]undecane-3-carbonyl]-2,3-dihydro-1H-inden-1-yl]-benzamide], with 104%; and `O=C(NC1CCc2ccc(C(=O)N3CCC4(CCN(Cc5ccc(F)cc5F)CC4)CC3)cc21)c1ccccc1Cl` (centres unmarked) [IND_CC-516, 2-Chloro-N-[6-[9-[(2,4-difluoro-phenyl)-methyl]-3,9-diazaspiro[5.5]undecane-3-carbonyl]-2,3-dihydro-1H-inden-1-yl]-benzamide], with 102%; and `COc1cccc(F)c1CN1CCC2(CC1)CCN(C(=O)c1ccc3c(c1)C(NC(=O)c1ccccc1Cl)CC3)CC2` (centres unmarked) [IND_CC-517, 2-Chloro-N-[6-[9-[(2-fluoro-6-methoxy-phenyl)-methyl]-3,9-diazaspiro[5.5]undecane-3-carbonyl]-2,3-dihydro-1H-inden-1-yl]-benzamide], with 90%. Take `O=C(c1ccc2c(c1)C(N(C(=O)c1ccccc1Cl)C1CC1)CC2)N1CCC2(CCN(Cc3cccnc3)CC2)C1` (centres unmarked) [IND_CC-518, 2-Chloro-N-cyclopropyl-N-[6-[8-(pyridin-3-yl-methyl)-2,8-diazaspiro[4.5]decane-2-carbonyl]-2,3-dihydro-1H-inden-1-yl]-benzamide]: the inhibition at 10 µM came to 86%.

`Cn1cccc1CN1CCC2(CC1)CCN(C(=O)c1ccc3c(c1)C(N(C(=O)c1ccccc1Cl)C1CC1)CC3)C2` (centres unmarked) [IND_CC-519, 2-Chloro-N-cyclopropyl-N-[6-[8-[(1-methyl-1H-pyrrol-2-yl)-methyl]-2,8-diazaspiro[4.5]decane-2-carbonyl]-2,3-dihydro-1H-inden-1-yl]-benzamide]: the inhibition at 10 µM is 53%.

With `O=C(c1ccc2c(c1)C(N(C(=O)c1ccccc1Cl)C1CC1)CC2)N1CCC2(CCN(Cc3c(F)cccc3F)CC2)C1` (centres unmarked) [IND_CC-520, 2-Chloro-N-cyclopropyl-N-[6-[8-[(2,6-difluoro-phenyl)-methyl]-2,8-diazaspiro[4.5]decane-2-carbonyl]-2,3-dihydro-1H-inden-1-yl]-benzamide], the inhibition at 10 µM turned out to be 72%. Consider `O=C(c1ccc2c(c1)C(N(C(=O)c1ccccc1Cl)C1CC1)CC2)N1CCC2(CCN(Cc3ccc(F)c(F)c3)CC2)C1` (centres unmarked) [IND_CC-521, 2-Chloro-N-cyclopropyl-N-[6-[8-[(3,4-difluoro-phenyl)-methyl]-2,8-diazaspiro[4.5]decane-2-carbonyl]-2,3-dihydro-1H-inden-1-yl]-benzamide], for which the inhibition at 10 µM was 66%. On the same count and under the same terms, to `O=C(c1ccc2c(c1)C(N(C(=O)c1ccccc1Cl)C1CC1)CC2)N1CCC2(CCN(Cc3cc(F)ccc3F)CC2)C1` (centres unmarked) [IND_CC-522, 2-Chloro-N-cyclopropyl-N-[6-[8-[(2,5-difluoro-phenyl)-methyl]-2,8-diazaspiro[4.5]decane-2-carbonyl]-2,3-dihydro-1H-inden-1-yl]-benzamide] belongs 55%; to `O=C(c1ccc2c(c1)C(N(C(=O)c1ccccc1Cl)C1CC1)CC2)N1CCC2(CCN(Cc3ccc(F)cc3F)CC2)C1` (centres unmarked) [IND_CC-523, 2-Chloro-N-cyclopropyl-N-[6-[8-[(2,4-difluoro-phenyl)-methyl]-2,8-diazaspiro[4.5]decane-2-carbonyl]-2,3-dihydro-1H-inden-1-yl]-benzamide], 68%. Consider `COc1ccc(CN2CCC3(CC2)CCN(C(=O)c2ccc4c(c2)C(N(C(=O)c2ccccc2Cl)C2CC2)CC4)C3)cc1F` (centres unmarked) [IND_CC-524, 2-Chloro-N-cyclopropyl-N-[6-[8-[(3-fluoro-4-methoxy-phenyl)-methyl]-2,8-diazaspiro[4.5]decane-2-carbonyl]-2,3-dihydro-1H-inden-1-yl]-benzamide], for which the inhibition at 10 µM stood at 62%. As to `COc1cccc(F)c1CN1CCC2(CC1)CCN(C(=O)c1ccc3c(c1)C(N(C(=O)c1ccccc1Cl)C1CC1)CC3)C2` (centres unmarked) [IND_CC-525, 2-Chloro-N-cyclopropyl-N-[6-[8-[(2-fluoro-6-methoxy-phenyl)-methyl]-2,8-diazaspiro[4.5]decane-2-carbonyl]-2,3-dihydro-1H-inden-1-yl]-benzamide], the inhibition at 10 µM was 62%. For `Cc1nc[nH]c1CN1CCC2(CC1)CCN(C(=O)c1ccc3c(c1)C(NC(=O)c1ccccc1Cl)CC3)CC2` (centres unmarked) [IND_CC-527, 2-Chloro-N-[6-[9-[(5-methyl-3H-imidazol-4-yl)-methyl]-3,9-diazaspiro[5.5]undecane-3-carbonyl]-2,3-dihydro-1H-inden-1-yl]-benzamide], the inhibition at 10 µM turned out to be 98%. Consider `O=C(NC1CCc2ccc(C(=O)N3CCC4(CCN(Cc5ccc(F)cc5Cl)CC4)CC3)cc21)c1ccccc1Cl` (centres unmarked) [IND_CC-529, 2-Chloro-N-[6-[9-[(2-chloro-4-fluoro-phenyl)-methyl]-3,9-diazaspiro[5.5]undecane-3-carbonyl]-2,3-dihydro-1H-inden-1-yl]-benzamide], for which the inhibition at 10 µM stood at 104%. In the case of `O=C(NC1CCc2ccc(C(=O)N3CCC4(CCN(Cc5c(F)cccc5Cl)CC4)CC3)cc21)c1ccccc1Cl` (centres unmarked) [IND_CC-530, 2-Chloro-N-[6-[9-[(2-chloro-6-fluoro-phenyl)-methyl]-3,9-diazaspiro[5.5]undecane-3-carbonyl]-2,3-dihydro-1H-inden-1-yl]-benzamide], the inhibition at 10 µM is 96%.

On to `Cc1c(CN2CCC3(CC2)CCN(C(=O)c2ccc4c(c2)C(NC(=O)c2ccccc2Cl)CC4)CC3)cnn1C` (centres unmarked) [IND_CC-531, 2-Chloro-N-[6-[9-[(1,5-dimethyl-1H-pyrazol-4-yl)-methyl]-3,9-diazaspiro[5.5]undecane-3-carbonyl]-2,3-dihydro-1H-inden-1-yl]-benzamide], for which the inhibition at 10 µM stood at 81%. In the case of `Cc1noc(C)c1CN1CCC2(CC1)CCN(C(=O)c1ccc3c(c1)C(NC(=O)c1ccccc1Cl)CC3)CC2` (centres unmarked) [IND_CC-532, 2-Chloro-N-[6-[9-[(3,5-dimethyl-isoxazol-4-yl)-methyl]-3,9-diazaspiro[5.5]undecane-3-carbonyl]-2,3-dihydro-1H-inden-1-yl]-benzamide], the inhibition at 10 µM turned out to be 62%.

Take `N#Cc1ccc(CN2CCC3(CC2)CCN(C(=O)c2ccc4c(c2)C(NC(=O)c2ccccc2Cl)CC4)CC3)cc1` (centres unmarked) [IND_CC-533, 2-Chloro-N-[6-[9-[(4-cyano-phenyl)-methyl]-3,9-diazaspiro[5.5]undecane-3-carbonyl]-2,3-dihydro-1H-inden-1-yl]-benzamide]: the inhibition at 10 µM came to 74%. Take `N#Cc1cccc(CN2CCC3(CC2)CCN(C(=O)c2ccc4c(c2)C(NC(=O)c2ccccc2Cl)CC4)CC3)c1` (centres unmarked) [IND_CC-534, 2-Chloro-N-[6-[9-[(3-cyano-phenyl)-methyl]-3,9-diazaspiro[5.5]undecane-3-carbonyl]-2,3-dihydro-1H-inden-1-yl]-benzamide]: the inhibition at 10 µM was 102%.

The same assay, now with this note: rat B1R, 10 µM.
For `O=C(NC1CCc2ccc(C(=O)N3CCC4(CCN(Cc5ccncc5)CC4)CC3)cc21)c1ccccc1Cl` (centres unmarked) [IND_CC-510, 2-Chloro-N-[6-[9-(pyridin-4-yl-methyl)-3,9-diazaspiro[5.5]undecane-3-carbonyl]-2,3-dihydro-1H-inden-1-yl]-benzamide], the “% Inhibition (rat B1R) at 10 μM” value worked out at 95%.
